Series [1] deals with T1, Kinesin-like protein KIF11 (Homo sapiens, UniProt P52732).
T1 sequence (P52732 whole entry): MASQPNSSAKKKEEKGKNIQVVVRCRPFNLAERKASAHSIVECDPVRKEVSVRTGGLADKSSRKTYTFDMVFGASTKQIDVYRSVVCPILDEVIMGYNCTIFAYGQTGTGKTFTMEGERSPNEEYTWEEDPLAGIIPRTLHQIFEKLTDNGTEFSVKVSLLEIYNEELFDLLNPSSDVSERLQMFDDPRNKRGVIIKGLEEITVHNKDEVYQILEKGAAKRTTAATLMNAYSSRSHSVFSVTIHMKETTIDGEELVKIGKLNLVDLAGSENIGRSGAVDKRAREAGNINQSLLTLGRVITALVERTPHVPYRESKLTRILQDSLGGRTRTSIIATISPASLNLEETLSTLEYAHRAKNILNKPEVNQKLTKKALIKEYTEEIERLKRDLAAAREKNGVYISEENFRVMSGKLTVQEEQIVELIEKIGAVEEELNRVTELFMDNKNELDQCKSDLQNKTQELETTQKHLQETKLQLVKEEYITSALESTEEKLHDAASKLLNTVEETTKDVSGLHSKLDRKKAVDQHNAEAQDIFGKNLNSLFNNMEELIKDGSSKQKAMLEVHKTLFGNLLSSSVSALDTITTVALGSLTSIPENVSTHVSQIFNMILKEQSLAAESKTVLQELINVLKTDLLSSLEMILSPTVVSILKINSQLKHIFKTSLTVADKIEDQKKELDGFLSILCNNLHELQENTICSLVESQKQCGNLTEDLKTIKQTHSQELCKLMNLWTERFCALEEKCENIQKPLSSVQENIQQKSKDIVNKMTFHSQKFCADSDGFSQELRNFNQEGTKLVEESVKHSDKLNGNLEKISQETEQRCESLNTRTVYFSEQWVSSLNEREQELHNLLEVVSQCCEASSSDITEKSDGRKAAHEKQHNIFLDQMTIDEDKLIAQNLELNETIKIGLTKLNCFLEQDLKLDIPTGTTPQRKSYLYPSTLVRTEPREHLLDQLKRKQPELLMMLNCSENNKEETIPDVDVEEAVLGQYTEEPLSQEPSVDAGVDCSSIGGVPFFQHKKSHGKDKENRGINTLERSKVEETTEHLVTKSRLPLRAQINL
Put plainly: Inhibition of KSP in human HCT116 cells assessed as phos-histone H3 level by immunofluorescent assay. It counts as cell-based, HCT-116.

Series [2] can be described thus: AUC in CD1 mouse at 5 mg/kg, iv. In kind it is ADME, organism-based. To be noted: plasma. Further details: dose 5 mg/kg, route intravenous.
A short description of series [3]: Clearance in CD1 mouse at 5 mg/kg, iv. In kind it is ADME, organism-based. On the set-up: dose 5 mg/kg, route intravenous. As to conditions: in vivo.
Series [4] in a line: AUC in CD1 mouse at 10 mg/kg, po. In kind it is ADME, organism-based. On the set-up: dose 10 mg/kg, route oral. To be noted: plasma.
Series [5] in a line: Cmax in CD1 mouse at 10 mg/kg, po. It counts as ADME, organism-based. Further details: dose 10 mg/kg, route oral. To be noted: in vivo.
Series [6] in a line: Oral bioavailability in CD1 mouse at 10 mg/kg. It counts as ADME, organism-based. To be noted: in vivo.
The nature of series [7]: Retention time of the compound. In kind it is physicochemical.
The subject of series [8] is HCT-116. Nature of the series: Induction of mitotic arrest in human HCT116 cells assessed as increase mitosis at 1.6 nM after 24 hrs by propidium iodine staining based FACS analysis. In kind it is functional, cell-based. Background: A flow cytometer gives signals particle by particle.
Series [9] has as its system HCT-116. Put plainly: Induction of mitotic arrest in human HCT116 cells assessed as increase in 4N DNA content at 1.6 nM after 16 hrs by propidium iodine staining based FACS analysis. In kind it is functional.
Series [10] relates to HCT-116. Nature of the series: Induction of mitotic arrest in human HCT116 cells assessed as increase in […] spindle formation at 6.25 nM after 16 hrs by propidium iodine staining based FACS analysis. In kind it is functional, cell-based.
Series [11] in a line: AUC in Sprague-Dawley rat at 1 mg/kg, iv. In kind it is ADME, organism-based. Further details: dose 1 mg/kg, route intravenous. As to conditions: plasma.
Series [12] in a line: AUC in beagle dog at 1 mg/kg, iv. It counts as ADME, organism-based, Canis lupus familiaris. Further details: dose 1 mg/kg, route intravenous. To be noted: plasma.
Series [13] in a line: Clearance in Sprague-Dawley rat at 1 mg/kg, iv. It counts as ADME, organism-based. Further details: dose 1 mg/kg, route intravenous. To be noted: in vivo.
Series [14] can be described thus: Clearance in beagle dog at 1 mg/kg, iv. In kind it is ADME, organism-based, Canis lupus familiaris. Further details: dose 1 mg/kg, route intravenous. To be noted: in vivo.
A short description of series [15]: Volume of distribution at steady state in CD1 mouse at 5 mg/kg, iv. In kind it is ADME, organism-based. On the set-up: dose 5 mg/kg, route intravenous. As to conditions: in vivo, read-out: Vdss.
The nature of series [16]: Volume of distribution at steady state in Sprague-Dawley rat at 1 mg/kg, iv. To be noted: in vivo, read-out: Vdss. In kind it is ADME, organism-based. Further details: dose 1 mg/kg, route intravenous.
Series [17] in a line: Volume of distribution at steady state in beagle dog at 1 mg/kg, iv. In kind it is ADME, organism-based, Canis lupus familiaris. On the set-up: dose 1 mg/kg, route intravenous. To be noted: in vivo, read-out: Vdss.
Series [18] in a line: Half life in CD1 mouse at 5 mg/kg, iv. In kind it is ADME, organism-based. Further details: dose 5 mg/kg, route intravenous. To be noted: in vivo.
Series [19] can be described thus: Half life in Sprague-Dawley rat at 1 mg/kg, iv. In kind it is ADME, organism-based. As to conditions: in vivo. On the set-up: dose 1 mg/kg, route intravenous.
Series [20] can be described thus: Half life in beagle dog at 1 mg/kg, iv. Further details: dose 1 mg/kg, route intravenous. To be noted: in vivo. In kind it is ADME, organism-based, Canis lupus familiaris.
Series [21] in a line: AUC in CD1 mouse at 5 mg/kg, po. Further details: dose 5 mg/kg, route oral. As to conditions: plasma. In kind it is ADME, organism-based.
Series [22] is described as follows: AUC in Sprague-Dawley rat at 50 mg/kg, po. In kind it is ADME, organism-based. Further details: dose 50 mg/kg, route oral. To be noted: plasma.
Series [23] can be described thus: AUC in beagle dog at 5 mg/kg, po. In kind it is ADME, organism-based, Canis lupus familiaris. Further details: dose 5 mg/kg, route oral. To be noted: plasma.
Series [24] in a line: Cmax in CD1 mouse at 5 mg/kg, po. In kind it is ADME, organism-based. On the set-up: dose 5 mg/kg, route oral. To be noted: in vivo.
A short description of series [25]: Cmax in Sprague-Dawley rat at 50 mg/kg, po. It counts as ADME, organism-based. On the set-up: dose 50 mg/kg, route oral. To be noted: in vivo.
Series [26] in a line: Cmax in beagle dog at 5 mg/kg, po. It counts as ADME, organism-based, Canis lupus familiaris. Further details: dose 5 mg/kg, route oral. As to conditions: in vivo.
A short description of series [27]: Oral bioavailability in CD1 mouse at 5 mg/kg. It counts as ADME, organism-based. As to conditions: in vivo.
Series [28] in a line: Oral bioavailability in Sprague-Dawley rat at 50 mg/kg. It counts as ADME, organism-based. As to conditions: in vivo.
A short description of series [29]: Oral bioavailability in beagle dog at 5 mg/kg. It counts as ADME, organism-based, Canis lupus familiaris. To be noted: in vivo.
Series [30] in a line: AUC in Sprague-Dawley rat at 5 mg/kg, po. In kind it is ADME, organism-based. On the set-up: dose 5 mg/kg, route oral. To be noted: plasma.
Series [31] is described as follows: Cmax in Sprague-Dawley rat at 5 mg/kg, po. As to conditions: in vivo. On the set-up: dose 5 mg/kg, route oral. In kind it is ADME, organism-based.
Series [32] can be described thus: Oral bioavailability in Sprague-Dawley rat at 5 mg/kg. It counts as ADME, organism-based. To be noted: in vivo.

Calls of active or inactive are those of the source.

In general, EC50 refers to the concentration that produces a half-maximal response. One may read the AUC as concentration integrated over time. A low value points to less exposure. Broadly, the clearance is the volume of plasma or blood freed of the substance per unit of time. Lower therefore signals a low capacity for elimination. One may read the Cmax as the maximum level reached in the sampled fluid or tissue. The bioavailability is the share of a dose that reaches the circulation, judged against a reference dose that is usually intravenous. With `CC(=O)N1N=C(c2cc(F)ccc2F)S[C@@]12c1cccc(F)c1OC[C@H]2CCN`, the EC50 in [1] came out at 5 nM. The AUC is 1.5 µM·h in series [2] and 1.3 µM·h in series [4]. The same compound showed a clearance in series [3] of 136 mL/min/kg. Besides, the maximum concentration (Cmax) in [5] was 430 nM. The same compound showed a bioavailability in series [6] of 46%.

Take `NCCCC(=O)N1N=C(c2cc(F)ccc2F)SC12CCOc1ccccc12` (stereo not given): the EC50 in series [1] was determined as 338 nM.

For `CC(=O)N1N=C(c2cc(F)ccc2F)S[C@@]12c1ccccc1OC[C@@H]2CCN`, the EC50 in series [1] was determined as 11 nM. The same compound yielded a Retention_time in [7] of 5.4 min.

A word on the half-life: it is the time needed for the level to fall by half in the phase considered. A higher half-life goes with slow loss. `CC(=O)N1N=C(c2cc(F)ccc2F)S[C@@]12c1ccccc1OC[C@H]2CCN`: the EC50 in series [1] turned out to be 2 nM. In addition, the outcome in [8] and in series [10] was Active. Also, in [9], the Activity stood at 70%. Further, the AUC in series [2] stood at 2.3 µM·h; in [11] it was 0.8 µM·h; in series [12], 3 µM·h; in [21], 0.3 µM·h; in series [22], 3.6 µM·h; in series [23] it was 1.4 µM·h. In addition, the clearance in [3] was found to be 90 mL/min/kg; in [13], 46 mL/min/kg; in [14], 13.7 mL/min/kg. For the same compound, the Vd in series [15] was found to be 6.4 L/kg; in [16], 8.6 L/kg; in series [17], 3.9 L/kg. The half-life in series [18] was 1.8 h; in [19], 2 h; in series [20], 3.9 h. Further, the Cmax is 100 nM in [24], 600 nM in series [25] and 300 nM in [26]. Moreover, the bioavailability was 12% in series [27], 9% in series [28] and 9% in series [29]. The compound further came in with a Retention_time in series [7] of 4.08 min.

In the case of `NCC(=O)N1N=C(c2cc(F)ccc2F)SC12CCOc1ccccc12` (stereo not given), in [1], the half-maximal effective concentration (EC50) is above 1000 nM.

Turning to `COCC(=O)N1N=C(c2cc(F)ccc2F)SC12CCOc1ccccc12` (stereo not given), the EC50 in series [1] is 665 nM.

`CC(=O)N1N=C(c2cc(F)ccc2F)SC12CCCOc1ccccc12` (stereo not given): the half-maximal effective concentration (EC50) in [1] was above 1000 nM.

Consider `CC(=O)N1N=C(c2cc(F)ccc2F)S[C@]12c1ccccc1OC[C@H]2CCN`, for which, in [1], the half-maximal effective concentration (EC50) came out at 205 nM. This compound registered a Retention_time in series [7] of 2.15 min.

Turning to `CC(C)C(=O)N1N=C(c2cc(F)ccc2F)SC12CCOc1ccccc12` (stereo not given), the half-maximal effective concentration (EC50) in series [1] is above 500 nM.

On to `CC(=O)N1N=C(c2cc(F)ccc2F)SC12CCNc1ccccc12` (stereo not given), for which, in [1], the EC50 worked out at 179 nM.

For `CC(=O)N1N=C(c2cc(F)ccc2F)S[C@@]12c1cc(F)cc(F)c1OC[C@H]2CCN`, the 50% effective concentration (EC50) in series [1] came to 5 nM. Further, the AUC in series [2] turned out to be 6.5 µM·h; in series [11], 0.8 µM·h; in series [12] it was 1.9 µM·h; in series [23] it was 1.7 µM·h; in series [4], 13.4 µM·h; in series [30] it was 1.7 µM·h. For the same compound, the values for the clearance in series [3], in series [13] and in series [14] were 29 mL/min/kg, 50 mL/min/kg and 20 mL/min/kg, respectively. Moreover, the values for the Cmax in series [26], in series [5] and in [31] were 200 nM, 1200 nM and 180 nM, respectively. In addition, the values for the bioavailability in series [29], in [6] and in series [32] were 18%, 100% and 44%, respectively.

Take `NCCC(=O)N1N=C(c2cc(F)ccc2F)SC12CCOc1ccccc12` (stereo not given): in [1], the concentration for a half-maximal effect (EC50) was above 500 nM.

`CC(=O)N1N=C(c2cc(F)ccc2F)S[C@@]12c1cc(Cl)ccc1OC[C@H]2CCN`: in [1], the 50% effective concentration (EC50) came out at 17 nM.

Values taken from ChEMBL document CHEMBL3400149, “Discovery of novel spiro 1,3,4-thiadiazolines as potent, orally bioavailable and brain penetrant KSP inhibitors” (Bioorg Med Chem, 2015).
